The values that follow come from patent US7317125B2 (Hoffman-La Roche Inc., priority 2005, dated 2008).

For the assay, the target named is T1, DGAT1 (Homo sapiens, UniProt O75907).
T1 construct: expressed in transfected cells; host or cells: CHOK1
T1 sequence (O75907 1-488): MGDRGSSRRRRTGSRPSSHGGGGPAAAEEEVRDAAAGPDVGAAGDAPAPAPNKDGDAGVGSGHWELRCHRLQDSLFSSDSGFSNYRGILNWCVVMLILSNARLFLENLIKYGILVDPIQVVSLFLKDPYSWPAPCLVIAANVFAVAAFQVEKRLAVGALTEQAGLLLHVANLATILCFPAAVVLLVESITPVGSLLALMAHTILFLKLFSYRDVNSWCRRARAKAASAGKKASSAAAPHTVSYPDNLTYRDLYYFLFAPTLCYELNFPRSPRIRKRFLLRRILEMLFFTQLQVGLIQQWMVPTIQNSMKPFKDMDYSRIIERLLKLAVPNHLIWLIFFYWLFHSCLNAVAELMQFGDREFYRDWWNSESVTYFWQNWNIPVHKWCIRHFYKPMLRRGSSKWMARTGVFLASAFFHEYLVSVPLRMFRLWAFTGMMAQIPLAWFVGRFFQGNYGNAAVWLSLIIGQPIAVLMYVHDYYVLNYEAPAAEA
In words: DGAT CHOK1 Cell Assay. The assay is classed as cell-based. The settings on record: CHOK1 cells transfected with DGAT1, 14C palmitic acid, 1 hour at 37° C., triglyceride by TLC. The text has this:
Materials for the assay were: petroleum ether (J. T. Baker #9268-22); diethyl ether (Aldrich #30995-8); acetic acid; 1,2-dioleoyl-3-palmitoyl-glycerol (Sigma D-1782); ^[…] Palmitic Acid (56.0 mCi/mmol PerkinElmer Life Sciences # NEC 075H); DMEM/F12 (Gibco #11330-032); fetal bovine serum; L-Glutamine; G418/ml media; DMEM High Glucose (Gibco #11995-065); BSA Fraction V Fatty Acid Free (Roche #100 377); 20×°cm silica gel 60 glass plates (EM Science Plates #5721/7).
CHOK1/DGAT cell culture medium was prepared with DMEM/F12 (Gibco #11330-032), […], and 20 ul G418/ml media. 1,2-dioleoyl-3-palmitoyl-glycerol was prepared by dissolving 10 mg into 1 ml chloroform and stored at −20° C. in 100 μl aliquots. Test compounds were prepared as 10 mM stock solutions in DMSO and store at −20° C. before use. Test dilutions were prepared by five fold serial dilutions over final concentrations.
CHOK1 cells transfected with DGAT1 were diluted in 6 well plates at 2.5×10^5 cells per well and cultured overnight. Cells were then washed twice with PBS. Test compound solutions (10 μl/2 ml media aliquots) in DMEM High Glucose with 0.01% BSA (fatty acid free) were added to cell culture plates at 800 μl per well. ^14C Palmitic acid (0.5 μCi, 5 μl) was added to each well. The plates were incubated for 1 hour at 37° C. After the incubation period, the plates were placed on ice, cells were scraped into media and transferred to microfuge tubes. 400 μl chloroform:methanol (2:1) was added to each tube. Each tube was briefly vortexed by hand, then mechanically vortexed for 10 minutes. Each tube was then centrifuged at 14,000 RPM for 10 minutes at 4° C. and the bottom layer removed and transferred to a new microfuge tube.
Extracted samples were spotted onto TLC plates at 20 μl per lane. The TLC plates were eluted with a solvent mixture of petroleum ether, diethyl ether and acetic acid (80:20:1) and air dried. Trigylceride (TG) spots were visualized by placing in an iodine chamber for several minutes. 1 μl of ^14C palmitic acid (diluted 1:10 in 100% EtOH) was spotted on the TG standard lane (at TG level) as a reference. The TLC plates were wrapped in plastic wrap and placed in a phosphorimager cassette for scanning.
The EC50 values for those compounds tested in this Example were generated using an Excel template, the results of which are shown in Table II: […]

By EC50 is commonly meant the concentration needed to bring the measured effect to its halfway point. Lower therefore signals greater potency. In turn, `CCCOc1ccccc1-c1cc(F)ccc1OCC(=O)N(NC(=O)c1ccccc1)C(C)C` [Example 17, benzoic acid N′-[2-(5-fluoro-2′-propoxy-biphenyl-2-yloxy)-acetyl]-N′-isopropyl-hydrazide] returned an EC50 of 2.17 µM.

Compound `Cc1ccc(OCC(=O)N(NC(=O)c2ccccc2)C(C)C)c(-c2ccccc2OC(F)(F)F)c1` [Example 31] showed an EC50 of 0.776 µM.

For `COc1ccccc1-c1cc(F)ccc1OCC(=O)N(NC(=O)c1ccccc1)C(C)C` [Example 4, benzoic acid N′-[2-(5-fluoro-2′-methoxy-biphenyl-2-yloxy)-acetyl]-N′-isopropyl-hydrazide], the midpoint of the response, the EC50, lay at 1.81 µM.

`CC(C)N(NC(=O)c1ccccc1)C(=O)CSc1ccccc1-c1cccc(F)c1` [Example 48, benzoic acid N′-[2-(3′-fluoro-biphenyl-2-ylsulfanyl)-acetyl]-N′-isopropyl-hydrazide] yielded an EC50 of 3.4 µM.

As for `CSc1ccccc1-c1cc(F)ccc1OCC(=O)N(NC(=O)c1ccccc1)C(C)C` [Example 13, benzoic acid N′-[2-(5-fluoro-2′-methylsylfanyl-biphenyl-2-yloxy)-acetyl]-N′-isopropyl-hydrazide], a half-maximal response (EC50) required 0.31 µM.

The compound `CC(C)N(NC(=O)c1ccccc1)C(=O)COc1c(F)cc(F)cc1-c1ccccc1OC(F)(F)F` [Example 33, benzoic acid N′-[2-(3,5-difluoro-2′-trifluoromethoxy-biphenyl-2-yloxy)-acetyl]-N′-isopropyl hydrazide] yielded an EC50 of 0.356 µM.

`CC(C)N(NC(=O)c1ccccc1)C(=O)COc1ccc(F)cc1-c1ccccc1Cl` [Example 2, benzoic acid N′-[2-(2′-chloro-5-fluoro-biphenyl-2-yloxy)-acetyl]-N′-isopropyl-hydrazide] gave an EC50 of 3.1 µM.

In turn, `Cc1cccc(-c2ccccc2SCC(=O)N(NC(=O)c2ccccc2)C(C)C)c1C` [Example 49, benzoic acid N′-[2-(2′,3′-dimethyl-biphenyl-2-ylsulfanyl)-acetyl]-N′-isopropyl-hydrazide] had an EC50 of 5.67 µM.

`Cc1cc(F)ccc1-c1cc(F)ccc1OCC(=O)N(NC(=O)c1ccccc1)C(C)C` [Example 25, benzoic acid N′-[2-(5,4′-difluoro-4′-methyl-biphenyl-2-yloxy)-acetyl]-N′-isopropyl-hydrazide] yielded an EC50 of 1.37 µM.

The compound `CCc1ccccc1-c1cc(F)c(F)cc1OCC(=O)N(NC(=O)c1ccccc1)C(C)C` [Example 27, benzoic acid N′-[2-(2′-ethyl-4,5-difluoro-biphenyl-2-yloxy)-acetyl]-N′-isopropyl-hydrazide] displayed an EC50 of 2.1 µM. Compared with the last compound, the EC50 is about 1.5-fold higher.

Consider `CC(C)Oc1ccccc1-c1cc(F)ccc1OCC(=O)N(NC(=O)c1ccccc1)C(C)C` [Example 15, benzoic acid N′-[2-(5-fluoro-2′-isopropoxy-biphenyl-2-yloxy)-acetyl]-N′-isopropyl-hydrazide], for which a half-maximal effect (EC50) was put at 4.86 µM.

As to `CCc1ccccc1-c1cc(F)ccc1OCC(=O)N(NC(=O)c1ccc(OCCOC)cc1)C(C)C` [Example 30, 4-(2-methoxy-ethoxy)-benzoic acid N′-[2-(5-fluoro-2′-ethyl-biphenyl-2-yloxy)-acetyl]-N′-isopropyl hydrazide], it took 1.83 µM to reach a half-maximal effect (EC50).

Turning to `CC(C)N(NC(=O)C1CCOCC1)C(=O)COc1ccc(F)cc1-c1ccccc1OC(F)(F)F` [Example 34, tetrahydro-pyran-4-carboxylic-acid-N′-[2-(5-fluoro-2′-trifluoromethoxy-biphenyl-2-yloxy)-acetyl]-N′-isopropyl-hydrazide], the EC50 was 1.24 µM.

Consider `CCc1ccccc1-c1cc(F)cc(F)c1OCC(=O)N(NC(=O)c1ccccc1)C(C)C` [Example 28, benzoic acid N′-[2-(2′-ethyl-3,5-difluoro-biphenyl-2-yloxy)-acetyl]-N′-isopropyl-hydrazide], for which the midpoint of the response, the EC50, lay at 0.296 µM.

`COc1cccc(-c2ccccc2SCC(=O)N(NC(=O)c2ccccc2)C(C)C)c1` [Example 50, benzoic acid N′-[2-(3′-methoxy-biphenyl-2-ylsulfanyl)-acetyl]-N′-isopropyl-hydrazide] yielded a concentration giving a half-maximal response (EC50) of 1.29 µM.

The compound `CC(C)N(NC(=O)c1ccccc1)C(=O)COc1ccc(F)cc1-c1ccc(F)cc1F` [Example 24, benzoic acid N′-[2-(5,2′,4′-trifluoro-biphenyl-2-yloxy)-acetyl]-N′-isopropyl-hydrazide] registered an EC50 of 2.93 µM.

In turn, `CC(C)N(NC(=O)c1ccsc1)C(=O)COc1ccc(F)cc1-c1ccccc1OC(F)(F)F` [Example 42, thiophene-3-carboxylic acid N′-[2-(5-fluoro-2′-trifluoromethoxy-biphenyl-2-yloxy)-acetyl]-N′-isopropyl hydrazide] showed an EC50 of 3.29 µM.

`CC(C)N(NC(=O)c1ccccc1)C(=O)COc1ccc(F)cc1-c1ccccc1OC(F)(F)F` [Example 20, benzoic acid N′-[2-(5-fluoro-2′-trifluoromethoxy-biphenyl-2-yloxy)-acetyl]-N′-isopropyl-hydrazide] came in with an EC50 of 0.328 µM.
